This is an account of results in patent US11787785B2 (NOVARTIS AG, priority 2021, dated 2023).

The target of this test is T1, WIZ protein (HiBit-WIZ fusion protein) (Homo sapiens, UniProt O95785+Q96SW2).
T1 construct: expressed in transfected cells
The test can be described thus: Quantification of WIZ protein levels in HiBit tag fusion protein assay (WIZ HiBit assay in 293T cells). Format: cell-based. As to conditions: for Dmax at 25 µM / remaining activity at 25 µM: HEK-293T; for Dmax at 25 µM: read-out: % degradation of WIZ (100 − Amax); for remaining activity at 25 µM: read-out: WIZ Amax; for DC50: WIZ HiBit assay in 293T cells, 10-point, 5-fold dose response, highest concentration 25 μM, about 18 hours, read-out: WIZ AC50. The procedure, abridged:
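Luminescence after LgBit complementation quantified remaining HiBit-WIZ in lysates of single-copy stable 293T lines. Cells dosed ~18 h at 37 °C with 10-point, 5-fold dilutions (highest 25 μM); DMSO set to 100%, fitted curve gave % remaining at 25 μM (Amax).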
In general terms: With HiBiT, luminescence reflects the tagged protein that the partner subunit can reach.

The mark [1] stands for this setting: 100 − Amax, at 25 uM, 293T cells.
[2] abbreviates: DMSO-normalized, curve-fitted percentage of WIZ-HiBit remaining at 25 uM, 293T cells.

T1 sequence (O95785 whole entry, the tested form may be a part): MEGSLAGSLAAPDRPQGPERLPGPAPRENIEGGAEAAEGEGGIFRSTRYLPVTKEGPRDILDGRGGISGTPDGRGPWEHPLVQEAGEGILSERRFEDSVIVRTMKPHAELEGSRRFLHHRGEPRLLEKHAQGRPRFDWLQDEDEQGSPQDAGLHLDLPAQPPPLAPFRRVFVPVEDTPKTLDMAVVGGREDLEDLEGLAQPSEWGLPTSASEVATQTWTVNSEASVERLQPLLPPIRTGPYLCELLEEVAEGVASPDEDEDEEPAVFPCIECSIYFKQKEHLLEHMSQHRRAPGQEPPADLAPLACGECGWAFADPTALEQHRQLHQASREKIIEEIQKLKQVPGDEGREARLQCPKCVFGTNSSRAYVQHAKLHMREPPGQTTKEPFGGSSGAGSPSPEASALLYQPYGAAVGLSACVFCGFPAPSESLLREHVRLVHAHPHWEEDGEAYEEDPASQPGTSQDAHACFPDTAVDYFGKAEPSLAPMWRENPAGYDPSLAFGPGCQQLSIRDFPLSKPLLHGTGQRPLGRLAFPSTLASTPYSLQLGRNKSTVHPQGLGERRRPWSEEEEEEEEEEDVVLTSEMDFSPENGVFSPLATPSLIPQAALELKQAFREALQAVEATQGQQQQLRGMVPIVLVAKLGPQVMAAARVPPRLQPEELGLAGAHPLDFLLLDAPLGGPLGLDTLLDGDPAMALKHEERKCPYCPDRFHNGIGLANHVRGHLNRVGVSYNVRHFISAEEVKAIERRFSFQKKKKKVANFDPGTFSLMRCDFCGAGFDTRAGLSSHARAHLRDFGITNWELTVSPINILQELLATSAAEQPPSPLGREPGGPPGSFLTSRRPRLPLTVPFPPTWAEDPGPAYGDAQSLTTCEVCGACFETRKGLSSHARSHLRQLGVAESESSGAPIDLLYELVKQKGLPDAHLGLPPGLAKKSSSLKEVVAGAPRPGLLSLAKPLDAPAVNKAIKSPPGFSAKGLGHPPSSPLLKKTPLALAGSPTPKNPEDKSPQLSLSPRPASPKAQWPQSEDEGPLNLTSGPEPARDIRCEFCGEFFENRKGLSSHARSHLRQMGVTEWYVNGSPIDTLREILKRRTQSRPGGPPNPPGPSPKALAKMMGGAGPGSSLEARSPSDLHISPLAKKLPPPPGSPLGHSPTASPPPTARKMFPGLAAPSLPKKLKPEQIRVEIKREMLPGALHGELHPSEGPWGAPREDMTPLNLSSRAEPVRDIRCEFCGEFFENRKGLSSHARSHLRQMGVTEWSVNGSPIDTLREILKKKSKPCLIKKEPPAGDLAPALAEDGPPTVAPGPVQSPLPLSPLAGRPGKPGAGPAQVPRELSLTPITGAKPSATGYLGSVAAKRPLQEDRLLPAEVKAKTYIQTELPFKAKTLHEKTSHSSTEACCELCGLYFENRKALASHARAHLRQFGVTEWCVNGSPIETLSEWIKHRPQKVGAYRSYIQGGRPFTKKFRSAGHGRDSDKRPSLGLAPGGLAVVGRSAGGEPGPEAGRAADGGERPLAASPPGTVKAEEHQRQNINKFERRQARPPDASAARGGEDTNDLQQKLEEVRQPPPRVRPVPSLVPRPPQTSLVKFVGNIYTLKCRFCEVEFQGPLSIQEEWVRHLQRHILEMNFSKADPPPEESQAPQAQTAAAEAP
T1 sequence (Q96SW2 whole entry, the tested form may be a part): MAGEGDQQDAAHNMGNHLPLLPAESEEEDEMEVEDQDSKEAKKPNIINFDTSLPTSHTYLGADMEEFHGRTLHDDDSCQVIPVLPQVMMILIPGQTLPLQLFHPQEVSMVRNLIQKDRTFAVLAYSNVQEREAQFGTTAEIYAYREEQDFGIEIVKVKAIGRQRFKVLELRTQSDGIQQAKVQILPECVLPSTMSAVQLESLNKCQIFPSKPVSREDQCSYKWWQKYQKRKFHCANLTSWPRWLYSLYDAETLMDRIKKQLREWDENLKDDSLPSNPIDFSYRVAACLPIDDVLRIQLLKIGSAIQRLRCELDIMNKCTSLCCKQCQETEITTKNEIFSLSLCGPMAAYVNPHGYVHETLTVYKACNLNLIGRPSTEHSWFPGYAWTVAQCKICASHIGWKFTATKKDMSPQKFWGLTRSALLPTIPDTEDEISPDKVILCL
T1 sequence (Q16531 whole entry partner, the tested form may be a part): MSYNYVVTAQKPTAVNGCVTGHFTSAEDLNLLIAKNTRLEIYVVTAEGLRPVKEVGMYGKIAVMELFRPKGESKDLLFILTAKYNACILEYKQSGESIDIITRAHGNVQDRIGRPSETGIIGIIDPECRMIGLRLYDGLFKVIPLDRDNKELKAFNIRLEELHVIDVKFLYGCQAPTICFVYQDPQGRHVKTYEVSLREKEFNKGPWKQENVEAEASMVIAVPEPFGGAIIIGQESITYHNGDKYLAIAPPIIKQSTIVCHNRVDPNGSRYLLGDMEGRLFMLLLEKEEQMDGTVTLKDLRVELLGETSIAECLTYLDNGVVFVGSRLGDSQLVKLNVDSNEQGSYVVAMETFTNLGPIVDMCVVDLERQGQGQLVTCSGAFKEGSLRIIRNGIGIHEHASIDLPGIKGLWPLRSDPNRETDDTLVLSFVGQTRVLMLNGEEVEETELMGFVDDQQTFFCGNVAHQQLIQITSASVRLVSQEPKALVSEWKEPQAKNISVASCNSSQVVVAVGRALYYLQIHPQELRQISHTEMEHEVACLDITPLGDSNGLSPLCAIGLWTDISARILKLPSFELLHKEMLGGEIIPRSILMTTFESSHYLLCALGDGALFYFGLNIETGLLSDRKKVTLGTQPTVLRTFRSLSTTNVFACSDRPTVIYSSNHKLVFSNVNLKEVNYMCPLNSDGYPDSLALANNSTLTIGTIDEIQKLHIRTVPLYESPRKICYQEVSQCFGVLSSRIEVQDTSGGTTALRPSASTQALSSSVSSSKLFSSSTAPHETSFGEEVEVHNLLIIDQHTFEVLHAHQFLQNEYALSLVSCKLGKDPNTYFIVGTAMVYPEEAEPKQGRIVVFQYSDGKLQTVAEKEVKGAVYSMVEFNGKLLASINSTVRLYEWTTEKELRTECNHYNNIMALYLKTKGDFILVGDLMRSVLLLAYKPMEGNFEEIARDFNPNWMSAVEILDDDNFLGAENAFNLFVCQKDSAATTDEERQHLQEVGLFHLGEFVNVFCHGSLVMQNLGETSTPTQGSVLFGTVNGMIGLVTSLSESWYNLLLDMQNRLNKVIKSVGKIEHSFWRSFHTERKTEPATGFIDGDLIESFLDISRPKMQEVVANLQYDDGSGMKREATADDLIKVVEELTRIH

Regarding `O=C1CCN(c2cnn3ccc(CC4CCN(CC5(C(F)(F)F)CC5)CC4)cc23)C(=O)N1` [Example 55, 1-(5-((1-((1-(trifluoromethyl)cyclopropyl)methyl)piperidin-4-yl)methyl)pyrazolo[1,5-a]pyridin-3-yl)dihydropyrimidine-2,4(1H,3H)-dione], the DC50 stood at 103 nM. The Dmax at 25 µM under setting [1] was found to be 64%. In addition, under setting [2], the remaining activity at 25 µM stood at 36%.

Regarding `C[C@H]1C[C@H](Cc2ccn3ncc(N4CCC(=O)NC4=O)c3c2)CCN1S(=O)(=O)N1CCCC1` [Example 291, 1-(5-(((2S,4R)-2-methyl-1-(pyrrolidin-1-ylsulfonyl)piperidin-4-yl)methyl)pyrazolo[1,5-a]pyridin-3-yl)dihydropyrimidine-2,4(1H,3H)-dione], the DC50 was 15 nM. Further, the Dmax at 25 µM under setting [1] came out at 83%. Also, the remaining activity at 25 µM under setting [2] turned out to be 17%.

As for `Cn1cnc(CN2CCC(Cc3ccn4ncc(N5CCC(=O)NC5=O)c4c3)CC2)c1` [Example 116], the DC50 was found to be 1700 nM. Further, under setting [1], the Dmax at 25 µM turned out to be 39%. Moreover, the remaining activity at 25 µM under setting [2] was 61%.

For the compound `O=C1CCN(c2cnn3ccc(CC4CCN(Cc5ccc(F)cc5)CC4)cc23)C(=O)N1` [Example 23, 1-(5-((1-(4-fluorobenzyl)piperidin-4-yl)methyl)pyrazolo[1,5-a]pyridin-3-yl)dihydropyrimidine-2,4(1H,3H)-dione], the DC50 was determined as 144 nM. In addition, the Dmax at 25 µM under setting [1] was determined as 77%. Besides, the remaining activity at 25 µM under setting [2] was found to be 23%.

On to `O=C1CCN(c2cnn3ccc(CC4CCN(Cc5cccc(OC(F)(F)F)c5)CC4)cc23)C(=O)N1` [Example 27, 1-(5-((1-(3-(trifluoromethoxy)benzyl)piperidin-4-yl)methyl)pyrazolo[1,5-a]pyridin-3-yl)dihydropyrimidine-2,4(1H,3H)-dione], for which the DC50 turned out to be 46 nM. Besides, the Dmax at 25 µM under setting [1] was 76%. Moreover, under setting [2], the remaining activity at 25 µM was 24%.

Take `O=C1CCN(c2cnn3ccc(CN4CCN5CCCC[C@@H]5C4)cc23)C(=O)N1` [Example 313, (R)-1-(5-((octahydro-2H-pyrido[1,2-a]pyrazin-2-yl)methyl)pyrazolo[1,5-a]pyridin-3-yl)dihydropyrimidine-2,4(1H,3H)-dione]: the DC50 was determined as 85 nM. Moreover, the Dmax at 25 µM under setting [1] was found to be 70%. Further, under setting [2], the remaining activity at 25 µM amounted to 30%.

Turning to `C[C@H]1C[C@H](Cc2ccn3ncc(N4CCC(=O)NC4=O)c3c2)CCN1S(=O)(=O)NC1CCCC1` [Example 293], the DC50 was found to be 65 nM. Besides, the Dmax at 25 µM under setting [1] was found to be 76%. Under setting [2], the remaining activity at 25 µM was 24%.

For the compound `C[C@H]1C[C@H](Cc2ccn3ncc(N4CCC(=O)NC4=O)c3c2)CCN1S(=O)(=O)C1CC1` [Example 286], the DC50 was determined as 31 nM. In addition, under setting [1], the Dmax at 25 µM came to 79%. Also, under setting [2], the remaining activity at 25 µM was 20%.

`CC(C)CN1CCN(Cc2ccn3ncc(N4CCC(=O)NC4=O)c3c2)C[C@@H]1C(F)F` [Example 247, (R)-1-(5-((3-(difluoromethyl)-4-isobutylpiperazin-1-yl)methyl)pyrazolo[1,5-a]pyridin-3-yl)dihydropyrimidine-2,4(1H,3H)-dione]: the DC50 turned out to be 1370 nM. The Dmax at 25 µM under setting [1] was 15%. For the same compound, the remaining activity at 25 µM under setting [2] came to 85%.

As to `CC1(C)CN(Cc2ccn3ncc(N4CCC(=O)NC4=O)c3c2)CCN1CC1CCCCC1` [Example 231, 1-(5-((4-(cyclohexylmethyl)-3,3-dimethylpiperazin-1-yl)methyl)pyrazolo[1,5-a]pyridin-3-yl)dihydropyrimidine-2,4(1H,3H)-dione], the DC50 stood at 150 nM. Under setting [1], the Dmax at 25 µM came out at 53%. Also, the remaining activity at 25 µM under setting [2] was 47%.

As for `O=C1CCN(c2cnn3ccc(CC4CCN(CCO)CC4)cc23)C(=O)N1` [Example 35, 1-(5-((1-(2-hydroxyethyl)piperidin-4-yl)methyl)pyrazolo[1,5-a]pyridin-3-yl)dihydropyrimidine-2,4(1H,3H)-dione], the DC50 was found to be 3140 nM. Under setting [1], the Dmax at 25 µM was 73%. Also, the remaining activity at 25 µM under setting [2] is 27%.

As for `CC(C)(C1CCC(F)(F)CC1)N1CCC(Cc2ccn3ncc(N4CCC(=O)NC4=O)c3c2)CC1` [Example 140, 1-(5-((1-(2-(4,4-difluorocyclohexyl)propan-2-yl)piperidin-4-yl)methyl)pyrazolo[1,5-a]pyridin-3-yl)dihydropyrimidine-2,4(1H,3H)-dione], the DC50 came out at 7 nM. In addition, the Dmax at 25 µM under setting [1] came out at 90%. In addition, the remaining activity at 25 µM under setting [2] turned out to be 10%.

`O=C1CCN(c2cnn3ccc(CN4CCN(CC5CC5)CC4)cc23)C(=O)N1` [Example 189, 1-(5-((4-(cyclopropylmethyl)piperazin-1-yl)methyl)pyrazolo[1,5-a]pyridin-3-yl)dihydropyrimidine-2,4(1H,3H)-dione]: the DC50 amounted to 191 nM. Further, under setting [1], the Dmax at 25 µM was 71%. In addition, the remaining activity at 25 µM under setting [2] was 29%.

Turning to `CC(C)CN1[C@@H]2CC[C@H]1CC(Cc1ccn3ncc(N4CCC(=O)NC4=O)c3c1)C2` (stereo partly drawn) [Example 67, 1-(5-(((1R,5S)-8-isobutyl-8-azabicyclo[3.2.1]octan-3-yl)methyl)pyrazolo[1,5-a]pyridin-3-yl)dihydropyrimidine-2,4(1H,3H)-dione], the DC50 worked out at 561 nM. The Dmax at 25 µM under setting [1] is 61%. For the same compound, the remaining activity at 25 µM under setting [2] is 39%.

As to `C[C@H]1CN(Cc2ccn3ncc(N4CCC(=O)NC4=O)c3c2)CCN1CC1CCO1` (stereo partly drawn) [Example 324, 1-(5-(((3S)-3-methyl-4-(oxetan-2-ylmethyl)piperazin-1-yl)methyl)pyrazolo[1,5-a]pyridin-3-yl)dihydropyrimidine-2,4(1H,3H)-dione], the DC50 was 108 nM. Under setting [1], the Dmax at 25 µM turned out to be 72%. Also, the remaining activity at 25 µM under setting [2] was 28%.

For the compound `CC(C)(C)OC(=O)N1CCCC(Cc2ccn3ncc(N4CCC(=O)NC4=O)c3c2)CC1` (stereo not drawn) [Example 270, tert-butyl 4-((3-(2,4-dioxotetrahydropyrimidin-1(2H)-yl)pyrazolo[1,5-a]pyridin-5-yl)methyl)azepane-1-carboxylate], the DC50 turned out to be 99 nM. In addition, the Dmax at 25 µM under setting [1] came to 57%. Also, the remaining activity at 25 µM under setting [2] stood at 43%.

On to `O=C1CCN(c2cnn3ccc(CN4CCN(Cc5ccncc5)CC4)cc23)C(=O)N1` [Example 176], for which the DC50 is 1400 nM. The Dmax at 25 µM under setting [1] worked out at 38%. Further, under setting [2], the remaining activity at 25 µM was 62%.

As for `COc1cccc(CN2CCC(Cc3ccn4ncc(N5CCC(=O)NC5=O)c4c3)CC2)c1` [Example 40, 1-(5-((1-(3-methoxybenzyl)piperidin-4-yl)methyl)pyrazolo[1,5-a]pyridin-3-yl)dihydropyrimidine-2,4(1H,3H)-dione], the DC50 turned out to be 52 nM. For the same compound, the Dmax at 25 µM under setting [1] is 70%. Moreover, the remaining activity at 25 µM under setting [2] worked out at 30%.

For `Cc1ccccc1CN1CCC(Cc2ccn3ncc(N4CCC(=O)NC4=O)c3c2)CC1` [Example 41, 1-(5-((1-(2-methylbenzyl)piperidin-4-yl)methyl)pyrazolo[1,5-a]pyridin-3-yl)dihydropyrimidine-2,4(1H,3H)-dione], the DC50 was 27 nM. Further, the Dmax at 25 µM under setting [1] is 70%. For the same compound, under setting [2], the remaining activity at 25 µM is 30%.

With `C[C@H]1CN(Cc2ccn3ncc(N4CCC(=O)NC4=O)c3c2)CCN1C[C@H]1CCC(F)(F)C1` [Example 320, 1-(5-(((S)-4-(((S)-3,3-difluorocyclopentyl)methyl)-3-methylpiperazin-1-yl)methyl)pyrazolo[1,5-a]pyridin-3-yl)dihydropyrimidine-2,4(1H,3H)-dione], the DC50 turned out to be 18 nM. Further, the Dmax at 25 µM under setting [1] was determined as 78%. In addition, under setting [2], the remaining activity at 25 µM was 21%.

For the compound `C[C@H]1CN(Cc2ccn3ncc(N4CCC(=O)NC4=O)c3c2)CCN1CC1CC2(COC2)C1` [Example 325, (S)-1-(5-((4-((2-oxaspiro[3.3]heptan-6-yl)methyl)-3-methylpiperazin-1-yl)methyl)pyrazolo[1,5-a]pyridin-3-yl)dihydropyrimidine-2,4(1H,3H)-dione], the DC50 stood at 47 nM. Further, the Dmax at 25 µM under setting [1] was determined as 82%. For the same compound, the remaining activity at 25 µM under setting [2] was 18%.

Consider `O=C1CCN(c2cnn3ccc(CN4CCN(CC5CCOC5)CC4)cc23)C(=O)N1` (stereo not drawn) [Example 177], for which the DC50 came out at 106 nM. Further, under setting [1], the Dmax at 25 µM worked out at 77%. The remaining activity at 25 µM under setting [2] stood at 23%.

Take `CO[C@H]1C[C@@H](CN2CCC(Cc3ccn4ncc(N5CCC(=O)NC5=O)c4c3)CC2)C1` [Example 300, 1-(5-((1-(((1s,3s)-3-methoxycyclobutyl)methyl)piperidin-4-yl)methyl)pyrazolo[1,5-a]pyridin-3-yl)dihydropyrimidine-2,4(1H,3H)-dione]: the DC50 was 3 nM. For the same compound, under setting [1], the Dmax at 25 µM was found to be 82%. Under setting [2], the remaining activity at 25 µM was 18%.

On to `C[C@H]1CC(F)(Cc2ccn3ncc(N4CCC(=O)NC4=O)c3c2)CCN1C1COC1` (single isomer, unassigned) [Example 311], for which the DC50 is 310 nM. Besides, the “% degradation of WIZ (100 − Amax)” value under setting [1] is 78%. Moreover, the “WIZ Amax” value under setting [2] is 22%.

As to `O=C1CCN(c2cnn3ccc(CC4CCN(C5COC5)CC4)cc23)C(=O)N1` [Example 281, 1-(5-((1-(oxetan-3-yl)piperidin-4-yl)methyl)pyrazolo[1,5-a]pyridin-3-yl)dihydropyrimidine-2,4(1H,3H)-dione], the DC50 was found to be 4 nM. Moreover, the Dmax at 25 µM under setting [1] came to 83%. Moreover, the remaining activity at 25 µM under setting [2] was 17%.
